Reference: US4588726A, “1-cyclopropyl-6-fluoro-1 ,4-dihydro-4-oxo-7-(3-oxo-1-piperazinyl)-3-quinolinecarboxylic acid antibacterial agents” (Bayer Aktiengesellschaft, priority 1984, dated 1986)
In brackets after ≈: the same amount, converted by molar mass.

Legend:
[1] = system: Staph. 1756; assay: MIC of the compound of Example 1 compared with norfloxacin, Staph. 1756; assay type: cell-based; details: Staphylococcus
Excerpt: (§1) Tables 1 and 2 below show examples of the MIC values of the compound of Example 1 compared with norfloxacin.

[2] = system: Staph. 133; assay: MIC of the compound of Example 1 compared with norfloxacin, Staph. 133; assay type: cell-based; details: Staphylococcus
Excerpt: as §1

[3] = system: E. coli C14; assay: Microtitre assay/urine, MIC, E. coli C14; assay type: cell-based; details: Escherichia coli
Excerpt: as §1
(§2) Microtitre assay/urine (80% pooled human urine,
(§3) 20% isosensitest medium)

[4] = system: Staph.aur. FK 422; assay: MIC of the compound of Example 1 compared with norfloxacin, Staph.aur. FK 422; assay type: cell-based; details: Staphylococcus aureus
Excerpt: as §1

[5] = system: Staph. 25151; assay: Microtitre assay/urine, MIC, Staph. 25151; assay type: cell-based; details: Staphylococcus
Excerpt: as §1, §2, §3

[6] = system: Gram-positive and Gram-negative organisms; details: J. Med. Chem. 23, 1358 (1980); cited from earlier work
[7] = C14, pH 7.1, E. coli C14, head prints only pH 7.1
[8] = C14, pH 7.1, E. coli C14, urine pH 7.1, 80% pooled human urine, 20% isosensitest medium
[9] = pH 7.1, Staph. 25151, head prints only pH 7.1
[10] = pH 7.1, Staph. 25151, urine pH 7.1, 80% pooled human urine, 20% isosensitest medium

Structure (SMILES) | MIC [1] [µg/mL] | MIC [2] [µg/mL] | MIC [3, 7] [µg/mL] | MIC [3, 8] [µg/mL] | MIC [4] [µg/mL] | MIC [5, 9] [µg/mL] | MIC [5, 10] [µg/mL] | antibacterial properties [6]
O=C1CN(c2cc3c(cc2F)c(=O)c(C(=O)O)cn3C2CC2)CCN1 [Example 1, 1-cyclopropyl-6-fluoro-1,4-dihydro-4-oxo-7-(3-oxo-1-piperazinyl)-3-quinolinecarboxylic acid] | 0.25 | 0.5 | 0.25 (≈ 0.724 µM) | 0.25 (≈ 0.724 µM) | 0.5 | 0.5 (≈ 1.45 µM) | 0.25 (≈ 0.724 µM) | 
CCn1cc(C(=O)O)c(=O)c2cc(F)c(N3CCNCC3)cc21 [Norfloxacin, 1-ethyl-6-fluoro-1,4-dihydro-4-oxo-7-(1-piperazinyl)-3-quinolinecarboxylicacid] | 2 | 1 | 0.5 (≈ 1.57 µM) | 4 (≈ 12.5 µM) | 2 | 4 (≈ 12.5 µM) | 4 (≈ 12.5 µM) | has antibacterial properties
